Experiments:
[1] = system: Rattus norvegicus; experiment: Antihypertensive activity was evaluated in spontaneously hypertensive rat model with base line systolic pressure of 174 mmHg by the indirect tail-cuff method at an oral screening dose of 50 mg/Kg; format: functional, Blood
[2] = system: Rattus norvegicus; experiment: Antihypertensive activity was evaluated in spontaneously hypertensive rat model with base line systolic pressure of 189 mmHg by the indirect tail-cuff method at an oral screening dose of 50 mg/kg.; format: functional, Blood

Row | Compound | BP [1] [mmHg] | BP [2] [mmHg]
1 | N=C(N)NCCN1CCCCCCC1 [GUANETHIDINE] | -20 | 
2 | CN1C(c2ccccc2)=Nc2ccccc2CC1c1ccccc1.Cl (configuration not stated) |  | -56

— ChEMBL document CHEMBL1122626, “(+/-)-4-Aryl-4,5-dihydro-3H-1,3-benzodiazepines. 3. 2-Phenyl and 2-amino analogues as potential antihypertensive agents” (1984)
